PubChem BioAssay (NCI)
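Following 48 hours of exposure in 96-well plates, responses at five concentrations were used to interpolate endpoints linearly. Abbreviation: GI50, concentration required for 50% inhibition of growth. TGI marks complete inhibition of growth.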

Columns and labels:
Assay in all cases: NCI tumour cell line growth inhibition, 48 h
UACC-62 melanoma = tested on: UACC-62 melanoma
MOLT-4 leukemia = tested on: MOLT-4 leukemia
RXF 393 renal = tested on: RXF 393 renal
SN12C renal = tested on: SN12C renal
MALME-3M melanoma = tested on: MALME-3M melanoma
SF-268 CNS = tested on: SF-268 CNS
HCT-15 colon = tested on: HCT-15 colon
DU-145 prostate = tested on: DU-145 prostate
NCI/ADR-RES ovarian = tested on: NCI/ADR-RES ovarian
T-47D breast = tested on: T-47D breast
K-562 leukemia = tested on: K-562 leukemia
SNB-19 CNS = tested on: SNB-19 CNS
HL-60(TB) leukemia = tested on: HL-60(TB) leukemia
OVCAR-8 ovarian = tested on: OVCAR-8 ovarian
SK-MEL-5 melanoma = tested on: SK-MEL-5 melanoma
MCF7 breast = tested on: MCF7 breast
HOP-62 NSCLC = tested on: HOP-62 NSCLC
ACHN renal = tested on: ACHN renal
SF-539 CNS = tested on: SF-539 CNS
NCI-H522 lung = tested on: NCI-H522 lung
MDA-MB-231 breast = tested on: MDA-MB-231 breast
HOP-92 NSCLC = tested on: HOP-92 NSCLC
TK-10 renal = tested on: TK-10 renal
CAKI-1 renal = tested on: CAKI-1 renal
SK-MEL-28 melanoma = tested on: SK-MEL-28 melanoma
EKVX NSCLC = tested on: EKVX NSCLC
UO-31 renal = tested on: UO-31 renal
UACC-257 melanoma = tested on: UACC-257 melanoma
HS 578T breast = tested on: HS 578T breast
PC-3 prostate = tested on: PC-3 prostate
NCI-H23 lung = tested on: NCI-H23 lung
CCRF-CEM leukemia = tested on: CCRF-CEM leukemia
HCT-116 colon = tested on: HCT-116 colon
SK-OV-3 ovarian = tested on: SK-OV-3 ovarian
IGROV1 ovarian = tested on: IGROV1 ovarian
RPMI-8226 leukemia = tested on: RPMI-8226 leukemia
SK-MEL-2 melanoma = tested on: SK-MEL-2 melanoma
LOX IMVI melanoma = tested on: LOX IMVI melanoma
COLO 205 colon = tested on: COLO 205 colon
M14 melanoma = tested on: M14 melanoma
SF-295 CNS = tested on: SF-295 CNS
A498 renal = tested on: A498 renal
786-0 renal = tested on: 786-0 renal
U251 CNS = tested on: U251 CNS
MDA-MB-435 = tested on: MDA-MB-435
A549 NSCLC = tested on: A549 NSCLC
MDA-MB-468 breast = tested on: MDA-MB-468 breast
SNB-75 CNS = tested on: SNB-75 CNS
SW-620 colon = tested on: SW-620 colon
NCI-H226 lung = tested on: NCI-H226 lung
KM12 colon = tested on: KM12 colon
SR leukemia = tested on: SR leukemia
OVCAR-3 ovarian = tested on: OVCAR-3 ovarian
BT-549 breast = tested on: BT-549 breast
HCC-2998 colon = tested on: HCC-2998 colon

Cc1noc2c(Cc3ccccc3)nn(CC(=O)N/N=C/c3ccc(Br)cc3)c(=O)c12
GI50 (UACC-62 melanoma): 13.2 µM | TGI (UACC-62 melanoma): 49.6 µM | GI50 (MOLT-4 leukemia): 50.6 µM | TGI (MOLT-4 leukemia): > 100 µM | GI50 (RXF 393 renal): 3.04 µM | TGI (RXF 393 renal): 12.6 µM | GI50 (SN12C renal): 3.27 µM | TGI (SN12C renal): > 100 µM | GI50 (MALME-3M melanoma): 14.5 µM | TGI (MALME-3M melanoma): 44.3 µM | GI50 (SF-268 CNS): 22.8 µM | TGI (SF-268 CNS): > 100 µM | GI50 (HCT-15 colon): > 100 µM | TGI (HCT-15 colon): > 100 µM | GI50 (DU-145 prostate): 76.2 µM | TGI (DU-145 prostate): > 100 µM | GI50 (NCI/ADR-RES ovarian): 5.64 µM | TGI (NCI/ADR-RES ovarian): > 100 µM | GI50 (T-47D breast): 1.96 µM | TGI (T-47D breast): 5.46 µM | GI50 (K-562 leukemia): 25.7 µM | TGI (K-562 leukemia): > 100 µM | GI50 (SNB-19 CNS): 13.3 µM | TGI (SNB-19 CNS): 30.2 µM | GI50 (HL-60(TB) leukemia): > 100 µM | TGI (HL-60(TB) leukemia): > 100 µM | GI50 (OVCAR-8 ovarian): 4.62 µM | TGI (OVCAR-8 ovarian): > 100 µM | GI50 (SK-MEL-5 melanoma): 28.4 µM | TGI (SK-MEL-5 melanoma): > 100 µM | GI50 (MCF7 breast): 77 µM | TGI (MCF7 breast): > 100 µM | GI50 (HOP-62 NSCLC): 3.37 µM | TGI (HOP-62 NSCLC): 13.1 µM | GI50 (ACHN renal): 2.71 µM | TGI (ACHN renal): 6.91 µM | GI50 (SF-539 CNS): 15.8 µM | TGI (SF-539 CNS): 36.8 µM | GI50 (NCI-H522 lung): 12.9 µM | TGI (NCI-H522 lung): 88.1 µM | GI50 (MDA-MB-231 breast): 3.34 µM | TGI (MDA-MB-231 breast): 12.7 µM | GI50 (HOP-92 NSCLC): 4.3 µM | TGI (HOP-92 NSCLC): 21.5 µM | GI50 (TK-10 renal): 3.01 µM | TGI (TK-10 renal): 9.71 µM | GI50 (CAKI-1 renal): 5.6 µM | TGI (CAKI-1 renal): 25.2 µM | GI50 (SK-MEL-28 melanoma): > 100 µM | TGI (SK-MEL-28 melanoma): > 100 µM | GI50 (EKVX NSCLC): 31.3 µM | TGI (EKVX NSCLC): > 100 µM | GI50 (UO-31 renal): 1.91 µM | TGI (UO-31 renal): 4.67 µM | GI50 (UACC-257 melanoma): > 100 µM | TGI (UACC-257 melanoma): > 100 µM | GI50 (HS 578T breast): 3.06 µM | TGI (HS 578T breast): 17.7 µM | GI50 (PC-3 prostate): 29.8 µM | TGI (PC-3 prostate): > 100 µM | GI50 (NCI-H23 lung): 9.2 µM | TGI (NCI-H23 lung): 41.3 µM | GI50 (CCRF-CEM leukemia): 30.5 µM | TGI (CCRF-CEM leukemia): > 100 µM | GI50 (HCT-116 colon): 3.31 µM | TGI (HCT-116 colon): 17.7 µM | GI50 (SK-OV-3 ovarian): 3.19 µM | TGI (SK-OV-3 ovarian): 9.49 µM | GI50 (IGROV1 ovarian): 13.5 µM | TGI (IGROV1 ovarian): 38.7 µM | GI50 (RPMI-8226 leukemia): 29.1 µM | TGI (RPMI-8226 leukemia): > 100 µM | GI50 (SK-MEL-2 melanoma): 17.5 µM | TGI (SK-MEL-2 melanoma): 33.7 µM | GI50 (LOX IMVI melanoma): 8.98 µM | TGI (LOX IMVI melanoma): > 100 µM | GI50 (COLO 205 colon): 7.46 µM | TGI (COLO 205 colon): > 100 µM | GI50 (M14 melanoma): 29.8 µM | TGI (M14 melanoma): > 100 µM | GI50 (SF-295 CNS): 5.79 µM | TGI (SF-295 CNS): 21.1 µM | GI50 (A498 renal): 1.73 µM | TGI (A498 renal): 3.34 µM | GI50 (786-0 renal): 1.89 µM | TGI (786-0 renal): 4.17 µM | GI50 (U251 CNS): 3.48 µM | TGI (U251 CNS): 30 µM | GI50 (MDA-MB-435): > 100 µM | TGI (MDA-MB-435): > 100 µM | GI50 (A549 NSCLC): 6.34 µM | TGI (A549 NSCLC): > 100 µM | GI50 (MDA-MB-468 breast): 9.61 µM | TGI (MDA-MB-468 breast): 35.9 µM | GI50 (SNB-75 CNS): 1.74 µM | TGI (SNB-75 CNS): 6.96 µM | GI50 (SW-620 colon): > 100 µM | TGI (SW-620 colon): > 100 µM | GI50 (NCI-H226 lung): 2.33 µM | TGI (NCI-H226 lung): 6.11 µM | GI50 (KM12 colon): > 100 µM | TGI (KM12 colon): > 100 µM | GI50 (SR leukemia): 14.7 µM | TGI (SR leukemia): > 100 µM | GI50 (OVCAR-3 ovarian): 3.36 µM | TGI (OVCAR-3 ovarian): > 100 µM | GI50 (BT-549 breast): 17.7 µM | TGI (BT-549 breast): 49.4 µM | GI50 (HCC-2998 colon): > 100 µM | TGI (HCC-2998 colon): > 100 µM
